13 compounds from patent publication US10766879B2, “Pyrimidine derivatives as kinase inhibitors and their therapeutical applications” (NantBioScience, Inc., priority 2015, dated 2020) can be followed below.

For assay [1], the system named is RT112. Put plainly: CellTiterblue viability, 72 hr, RT112. Conditions: Homo sapiens, RT-112, RT112 cells. It counts as cell-based. The protocol:
(§1) A number of studies were performed to analyze the consequences of tyrosine kinase inhibition in cell lines. To do this, 1000 cells are seeded in 27 μl/well in 384-well microplates, which are then placed in a humidified CO2 incubator at 37° C. overnight. The next day, 3 μl/well of 10× concentrated drug is added and the plates are returned to the incubator for 72 hr. After 72 hr incubation, plates are removed and […] CellTiterblue (Promega) viability reagent is added. Plates are returned to the incubator for 3 hr, after which it is fluorescence measurements are read on the Victor X3 plate reader (Perkin Elmer). Data are analyzed using Excel (Microsoft), and GI50 values are determined using Prism (Graphpad).

Assay [2] has as its target T1, Tie2 (Homo sapiens, UniProt Q02763).
T1 construct: purchased Millipore (KinaseProfiler Service)
Put plainly: KinaseProfiler kinase inhibition assay, Tie2. It counts as biochemical. Conditions: 1 μM compound.

For assay [3], the target named is T2, Ret kinase (Homo sapiens, UniProt P07949).
T2 construct: purchased Millipore (KinaseProfiler Service)
T2 sequence (P07949 29-1114): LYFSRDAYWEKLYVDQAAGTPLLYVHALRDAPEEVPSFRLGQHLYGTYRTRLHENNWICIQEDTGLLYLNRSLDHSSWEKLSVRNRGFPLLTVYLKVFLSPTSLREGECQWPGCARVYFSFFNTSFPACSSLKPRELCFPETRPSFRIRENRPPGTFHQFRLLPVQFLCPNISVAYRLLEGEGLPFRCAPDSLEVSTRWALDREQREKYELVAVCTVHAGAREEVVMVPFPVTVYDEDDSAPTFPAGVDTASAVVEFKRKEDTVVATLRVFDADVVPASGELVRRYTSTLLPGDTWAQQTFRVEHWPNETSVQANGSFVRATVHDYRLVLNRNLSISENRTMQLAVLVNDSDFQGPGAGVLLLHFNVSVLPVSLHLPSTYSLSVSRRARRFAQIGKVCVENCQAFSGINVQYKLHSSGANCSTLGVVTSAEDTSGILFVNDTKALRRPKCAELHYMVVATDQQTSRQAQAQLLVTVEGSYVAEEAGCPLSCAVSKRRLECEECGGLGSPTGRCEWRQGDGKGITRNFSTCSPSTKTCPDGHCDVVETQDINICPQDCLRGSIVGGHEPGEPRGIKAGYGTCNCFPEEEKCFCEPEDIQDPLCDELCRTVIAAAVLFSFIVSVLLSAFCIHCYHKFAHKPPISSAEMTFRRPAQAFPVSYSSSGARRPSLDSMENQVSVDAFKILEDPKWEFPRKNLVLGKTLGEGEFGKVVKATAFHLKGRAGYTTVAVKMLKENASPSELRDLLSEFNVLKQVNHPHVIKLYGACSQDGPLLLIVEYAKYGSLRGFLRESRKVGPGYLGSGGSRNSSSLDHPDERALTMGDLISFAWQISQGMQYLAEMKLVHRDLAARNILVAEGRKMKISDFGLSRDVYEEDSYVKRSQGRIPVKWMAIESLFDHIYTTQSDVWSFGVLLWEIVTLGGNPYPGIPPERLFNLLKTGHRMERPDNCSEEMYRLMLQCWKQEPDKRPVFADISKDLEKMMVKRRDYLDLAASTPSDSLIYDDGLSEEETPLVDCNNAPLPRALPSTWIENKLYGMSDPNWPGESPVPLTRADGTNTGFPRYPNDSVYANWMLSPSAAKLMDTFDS
Put plainly: KinaseProfiler kinase inhibition assay, Ret. The following applies: 1 μM compound. It counts as biochemical.

In assay [4] the target is T3, c-Src kinase (Homo sapiens, UniProt P12931).
T3 construct: purchased Millipore (KinaseProfiler Service)
Put plainly: KinaseProfiler kinase inhibition assay, c-Src. It counts as biochemical. The following applies: 1 μM compound; read-out: % Inhibition @1 μM cSrc.

Assay [5] relates to AN3_CA. Put plainly: CellTiterblue viability, 72 hr, AN3_CA. It counts as cell-based. Conditions: Homo sapiens, AN3-CA, AN3_CA cells. The protocol: as §1
The test system of assay [6] is MDA-MB134. Put plainly: CellTiterblue viability, 72 hr, MDA-MB134. Conditions: MDA-MB134 cells. The assay is classed as cell-based. The method, then:
as §1

The target of assay [7] is T4, FGFR1 kinase (Homo sapiens, UniProt P11362).
T4 construct: purchased Millipore (KinaseProfiler Service)
Put plainly: KinaseProfiler kinase inhibition assay, FGFR1. It counts as biochemical. Conditions: 1 μM compound.

In assay [8] the test system is Kato III. Put plainly: CellTiterblue viability, 72 hr, Kato III. The assay is classed as cell-based. Conditions: Homo sapiens, Kato III cells. The method, then:
as §1

Assay [9] addresses T5, Abl kinase (Homo sapiens, UniProt P00519).
T5 construct: purchased Millipore (KinaseProfiler Service)
Put plainly: KinaseProfiler kinase inhibition assay, Abl. The assay is classed as biochemical. Conditions: 1 μM compound.

Assay [10] has as its system KG1a. Put plainly: CellTiterblue viability, 72 hr, KG1a. The assay is classed as cell-based. The following applies: Homo sapiens, KG-1a, KG1a cells. The protocol: as §1
Assay [11] has as its target T6, KDR kinase (Homo sapiens, UniProt P35968).
T6 construct: purchased Millipore (KinaseProfiler Service)
Put plainly: KinaseProfiler kinase inhibition assay, KDR. It counts as biochemical. Conditions: 1 μM compound.

Assay [12] addresses T7, Alk kinase (Homo sapiens, UniProt Q9UM73).
T7 construct: purchased Millipore (KinaseProfiler Service)
Put plainly: KinaseProfiler kinase inhibition assay, Alk. The assay is classed as biochemical. The following applies: 1 μM compound.

In assay [13] the target is T8, phospho-FGFR2 (Homo sapiens, UniProt P21802).
T8 construct: endogenous in cells; host or cells: Kato III cells
Put plainly: phospho-FGFR ELISA on Kato III cells. The assay is classed as cell-based. The following applies: read-out: EC50 (nM) P-FGFR2, Kato III cells. The method, then:
For the phospho-FGFR, the following assay Protocol was used. 25,000 cells are seeded in 90 μl/well in 96-well microplates, which are then placed in a humidified CO2 incubator at 37° C. overnight. 96-well ELISA plates (Mesoscale Discovery) are coated with capture antibody (R&D Systems Duo-Set) at 4 μg/ml, 30 μl/well. The next day, 10 μl/well of 10× concentrated drug is added and the plates are returned to the incubator for […]. ELISA plates are washed using an automated plate washer (BioTek Instruments). After 30 min, cells are inverted and gently tapped to remove excess medium, and immediately placed on ice. 30 μl mPer cell lysis reagent (Thermo Scientific) with protease and phosphatase inhibitors is added/well. After 15 min on ice, lysates are mixed and 30 μl transferred to the ELISA plate. Plates are incubated for 2 hr, washed, and 30 μl/well detection antibody is added. After 1 hr, plates are washed and 30 μl “SulfoTag” (MesoScale Discovery) detection reagent is added. After 1 hr, plates are washed and 150 μl/well read solution is added. Electrochemiluminescence is determined on the Mesoscale Discovery Sector Imager 2000. Data are analyzed using Excel (Microsoft), and EC50 values are determined using Prism (Graphpad).

T6 sequence (P35968 20-1356): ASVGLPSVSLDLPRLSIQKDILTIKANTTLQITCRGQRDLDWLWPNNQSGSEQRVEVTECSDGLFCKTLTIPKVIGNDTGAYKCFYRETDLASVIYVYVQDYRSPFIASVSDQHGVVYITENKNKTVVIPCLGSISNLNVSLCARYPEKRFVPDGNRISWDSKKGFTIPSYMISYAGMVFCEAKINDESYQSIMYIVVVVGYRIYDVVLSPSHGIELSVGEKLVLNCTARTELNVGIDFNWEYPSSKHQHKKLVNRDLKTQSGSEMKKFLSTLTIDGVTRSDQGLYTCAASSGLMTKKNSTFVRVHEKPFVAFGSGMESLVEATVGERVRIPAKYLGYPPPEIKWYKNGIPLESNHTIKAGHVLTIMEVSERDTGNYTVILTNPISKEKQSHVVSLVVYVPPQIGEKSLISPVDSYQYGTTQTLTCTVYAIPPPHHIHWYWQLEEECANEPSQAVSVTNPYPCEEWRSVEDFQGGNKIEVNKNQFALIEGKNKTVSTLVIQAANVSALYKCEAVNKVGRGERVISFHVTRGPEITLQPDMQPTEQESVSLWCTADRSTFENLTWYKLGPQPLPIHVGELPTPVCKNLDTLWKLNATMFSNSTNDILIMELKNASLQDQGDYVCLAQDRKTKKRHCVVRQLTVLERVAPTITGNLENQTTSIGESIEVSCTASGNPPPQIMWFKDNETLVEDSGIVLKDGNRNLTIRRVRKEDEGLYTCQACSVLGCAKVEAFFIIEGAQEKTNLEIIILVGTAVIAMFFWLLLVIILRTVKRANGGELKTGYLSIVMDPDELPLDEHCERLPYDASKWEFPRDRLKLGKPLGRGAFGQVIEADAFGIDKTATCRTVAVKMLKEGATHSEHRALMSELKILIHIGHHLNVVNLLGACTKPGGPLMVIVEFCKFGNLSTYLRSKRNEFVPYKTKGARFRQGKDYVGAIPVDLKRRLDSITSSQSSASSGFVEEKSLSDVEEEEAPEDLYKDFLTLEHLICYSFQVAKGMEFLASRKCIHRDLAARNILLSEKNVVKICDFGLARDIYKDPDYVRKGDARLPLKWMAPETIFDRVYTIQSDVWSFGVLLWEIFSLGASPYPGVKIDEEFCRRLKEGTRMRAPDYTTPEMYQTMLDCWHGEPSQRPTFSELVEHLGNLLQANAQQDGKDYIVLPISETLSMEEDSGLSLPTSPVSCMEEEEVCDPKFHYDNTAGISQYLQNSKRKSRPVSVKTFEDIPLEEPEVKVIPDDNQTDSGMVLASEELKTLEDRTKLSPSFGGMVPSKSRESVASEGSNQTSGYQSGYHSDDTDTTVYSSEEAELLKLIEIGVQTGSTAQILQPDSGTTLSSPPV
T1 sequence (Q02763 23-1124): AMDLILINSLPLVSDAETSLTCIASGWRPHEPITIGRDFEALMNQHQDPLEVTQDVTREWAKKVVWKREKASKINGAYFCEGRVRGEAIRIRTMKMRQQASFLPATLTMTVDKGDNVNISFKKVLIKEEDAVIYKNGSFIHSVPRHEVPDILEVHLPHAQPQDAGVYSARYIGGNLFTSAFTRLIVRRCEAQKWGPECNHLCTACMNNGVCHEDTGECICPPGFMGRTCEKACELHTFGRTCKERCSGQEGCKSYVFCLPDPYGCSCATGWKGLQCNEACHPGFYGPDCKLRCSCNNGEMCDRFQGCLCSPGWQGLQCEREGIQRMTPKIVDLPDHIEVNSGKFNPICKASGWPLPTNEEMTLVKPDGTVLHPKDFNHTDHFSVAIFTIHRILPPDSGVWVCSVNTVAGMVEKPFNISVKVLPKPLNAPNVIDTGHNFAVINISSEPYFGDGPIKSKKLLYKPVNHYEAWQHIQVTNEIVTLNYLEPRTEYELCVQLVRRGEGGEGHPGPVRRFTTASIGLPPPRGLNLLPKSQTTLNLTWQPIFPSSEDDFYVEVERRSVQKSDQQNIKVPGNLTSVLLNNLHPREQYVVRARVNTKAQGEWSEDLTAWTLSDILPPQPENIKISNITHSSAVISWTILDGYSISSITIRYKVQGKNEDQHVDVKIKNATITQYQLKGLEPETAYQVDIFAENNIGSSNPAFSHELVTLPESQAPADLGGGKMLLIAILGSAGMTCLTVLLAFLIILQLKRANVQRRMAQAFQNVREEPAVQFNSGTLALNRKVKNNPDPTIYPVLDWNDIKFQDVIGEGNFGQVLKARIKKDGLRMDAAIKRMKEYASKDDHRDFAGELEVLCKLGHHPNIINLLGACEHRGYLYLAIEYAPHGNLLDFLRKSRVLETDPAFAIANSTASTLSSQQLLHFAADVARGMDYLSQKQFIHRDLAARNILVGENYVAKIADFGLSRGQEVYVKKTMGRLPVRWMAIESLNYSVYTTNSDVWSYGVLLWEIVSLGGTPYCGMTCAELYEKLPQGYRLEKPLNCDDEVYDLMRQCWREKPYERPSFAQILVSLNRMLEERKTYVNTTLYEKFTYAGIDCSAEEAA
T5 sequence (P00519 whole entry): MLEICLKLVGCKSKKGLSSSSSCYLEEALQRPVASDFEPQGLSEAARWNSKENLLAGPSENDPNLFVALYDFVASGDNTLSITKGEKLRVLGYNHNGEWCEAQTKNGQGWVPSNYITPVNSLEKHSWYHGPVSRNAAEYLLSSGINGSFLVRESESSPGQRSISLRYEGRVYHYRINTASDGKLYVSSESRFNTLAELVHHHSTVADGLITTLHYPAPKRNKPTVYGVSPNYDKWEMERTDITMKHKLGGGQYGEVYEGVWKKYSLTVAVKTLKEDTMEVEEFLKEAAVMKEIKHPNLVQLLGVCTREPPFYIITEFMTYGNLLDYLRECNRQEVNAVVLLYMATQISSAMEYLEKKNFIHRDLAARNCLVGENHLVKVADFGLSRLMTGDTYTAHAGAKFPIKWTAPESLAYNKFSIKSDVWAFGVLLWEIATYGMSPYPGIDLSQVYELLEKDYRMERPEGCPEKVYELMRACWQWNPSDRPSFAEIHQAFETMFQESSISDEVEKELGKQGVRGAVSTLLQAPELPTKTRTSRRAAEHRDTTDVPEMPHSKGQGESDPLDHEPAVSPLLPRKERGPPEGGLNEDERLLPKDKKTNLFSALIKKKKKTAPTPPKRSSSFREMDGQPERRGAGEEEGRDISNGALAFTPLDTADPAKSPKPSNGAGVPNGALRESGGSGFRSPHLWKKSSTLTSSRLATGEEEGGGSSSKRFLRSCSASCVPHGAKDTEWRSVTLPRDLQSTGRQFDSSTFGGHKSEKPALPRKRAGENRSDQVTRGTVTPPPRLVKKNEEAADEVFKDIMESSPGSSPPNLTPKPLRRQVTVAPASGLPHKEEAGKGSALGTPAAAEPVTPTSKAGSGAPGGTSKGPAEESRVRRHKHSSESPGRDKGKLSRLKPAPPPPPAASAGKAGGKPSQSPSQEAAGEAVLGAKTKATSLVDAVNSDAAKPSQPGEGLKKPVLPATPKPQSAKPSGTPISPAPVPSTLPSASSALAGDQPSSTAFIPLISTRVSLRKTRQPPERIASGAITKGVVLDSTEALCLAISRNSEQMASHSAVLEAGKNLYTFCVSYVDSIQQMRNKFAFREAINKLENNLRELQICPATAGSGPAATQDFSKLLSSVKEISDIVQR

On to `COc1c(Nc2ccc(N3CCN(C)CC3)cc2)ncnc1Oc1ccc2[nH]c(C)cc2c1F` [Compound 43], for which the GI50 in assay [1], in assay [5], in [6], in assay [8] and in [10] was above 500 nM each time. Moreover, the inhibition at 1 µM is 21% in assay [2]; -28% in [3]; -4% in [4]; 48% in assay [7]; -10% in assay [9]; -7% in assay [11]. Moreover, in [12], the inhibition at 1 µM was -32%.

As for `COc1c(Nc2ccc(N3CCN(C)CC3)cn2)ncnc1Oc1ccc2[nH]c(C)cc2c1F` [Compound 44], the GI50 in assay [1], in assay [5], in assay [6], in assay [8] and in assay [10] was above 500 nM each time. Besides, the inhibition at 1 µM in [2] is 11%; in assay [3], -12%; in [4] it was -11%; in [7] it was 16%; in assay [9], -6%; in assay [11], -1%. For the same compound, the inhibition at 1 µM in [12] was -18%.

On to `Cc1cc2c(F)c(Oc3ncnc(Nc4ccc(N5CCN(C)CC5)cc4)c3N)ccc2[nH]1` [Compound 46], for which the GI50 was above 500 nM in assay [1]; above 500 nM in assay [5]; 254 nM in assay [6]; above 500 nM in assay [8]; above 500 nM in assay [10]. Besides, the inhibition at 1 µM in assay [2] is 14%; in assay [3], -43%; in assay [4] it was 12%; in assay [7] it was 54%; in assay [9], -13%; in assay [11], 5%. Moreover, the inhibition at 1 µM in assay [12] is -34%.

Turning to `Cc1cc2c(F)c(Oc3ncnc(Nc4ccc(N5CCN(C)CC5)cn4)c3N)ccc2[nH]1` [Compound 47], the GI50 in assay [1], in assay [5], in [6], in assay [8] and in [10] was above 500 nM each time. Also, the inhibition at 1 µM in [2] was 11%; in assay [3], -30%; in assay [4], -6%; in [7], 34%; in assay [9] it was -6%; in assay [11], 1%. Moreover, in [12], the inhibition at 1 µM was -31%.

Take `Cc1cc2c(F)c(Oc3ncnc(Nc4ccc(N5CCN(C)CC5)cc4)c3C#N)ccc2[nH]1` [Compound 54]: the GI50 in [1] stood at 103 nM; in assay [5], 214 nM; in assay [6] it was 20 nM; in [8], 12 nM; in [10] it was 4 nM. Besides, the inhibition at 1 µM was 21% in assay [2]; -30% in assay [3]; 8% in [4]; 101% in [7]; 3% in assay [9]; 97% in [11]. Further, the inhibition at 1 µM in assay [12] is -30%.

Regarding `CCN1CCN(c2ccc(Nc3ncnc(Oc4ccc5[nH]c(C)cc5c4F)c3C#N)nc2)CC1` [Compound 55], the GI50 is above 500 nM in [1]; 98 nM in assay [5]; 78 nM in assay [6]; 319 nM in [8]; 7 nM in assay [10]. The inhibition at 1 µM in [2] is 31%; in [3], -48%; in assay [4], 10%; in assay [7], 99%; in [9], 2%; in [11] it was 91%. Moreover, in assay [12], the inhibition at 1 µM is -23%.

As for `Cc1cc2c(F)c(Oc3ncnc(Nc4ccc(N5CCNCC5)cc4)c3C#N)ccc2[nH]1` [Compound 57], the GI50 in [1] was 33 nM; in [5], above 500 nM; in [6], 8 nM; in assay [8], 51 nM; in assay [10] it was 4 nM. The inhibition at 1 µM in assay [2] was 30%; in [3], -26%; in [4], 12%; in assay [7], 99%; in [9], -6%; in assay [11] it was 94%. The inhibition at 1 µM in assay [12] was -40%.

As for `CCN1CCN(c2ccc(Nc3ncnc(Oc4cc(F)c5[nH]c(C)cc5c4F)c3C#N)cc2)CC1` [Compound 60], the GI50 was 47 nM in assay [1]; above 500 nM in [5]; 18 nM in assay [6]; 26 nM in assay [8]; 5 nM in assay [10]. In addition, the inhibition at 1 µM in assay [2] is 24%; in assay [3], -42%; in assay [4], 3%; in [7], 100%; in assay [9] it was -7%; in assay [11] it was 93%. Moreover, the inhibition at 1 µM in assay [12] stood at 3%.

On to `CCN1CCN(c2ccc(Nc3ncnc(Oc4cc(F)c5[nH]c(C)cc5c4F)c3C#N)nc2)CC1` [Compound 61], for which the GI50 in assay [1] was 11 nM; in assay [5], above 500 nM; in assay [6], 28 nM; in [8] it was 77 nM; in assay [10], 4 nM. Also, the inhibition at 1 µM in assay [2] was 23%; in assay [3] it was -13%; in [4], -9%; in [7], 100%; in [9], 3%; in [11], 51%. For the same compound, the inhibition at 1 µM in assay [12] is -41%.

`CCN1CCN(c2ccc(Nc3ncnc(Oc4ccc5c(cc(C)n5C)c4F)c3F)cc2)CC1` [Compound 63]: the GI50 in assay [1] is above 500 nM; in [5] it was above 500 nM; in [6] it was 282 nM; in [8] it was above 500 nM; in assay [10] it was above 500 nM. In addition, the inhibition at 1 µM was 13% in assay [2]; -41% in assay [3]; 1% in [4]; 91% in assay [7]; 3% in [9]; 10% in assay [11]. In addition, in [12], the inhibition at 1 µM is -3%.

With `CCN1CCN(c2ccc(Nc3ncnc(Oc4ccc5c(cc(C)n5C)c4F)c3C#N)cc2)CC1` [Compound 65], the GI50 in assay [1] was above 500 nM; in assay [5] it was above 500 nM; in [6], 461 nM; in assay [8], above 500 nM; in assay [10], above 500 nM. Besides, the inhibition at 1 µM in assay [2] was 37%; in assay [3], -19%; in [4], 13%; in [7], 98%; in [9], -1%; in [11], 8%. Moreover, the inhibition at 1 µM in [12] is -28%.

As for `CCN1CCN(c2ccc(Nc3ncnc(Oc4ccc5[nH]c(C)cc5c4F)c3C(N)=O)cc2)CC1` [Compound 68], the GI50 amounted to 11 nM in [1]; 79 nM in assay [5]; 111 nM in [6]; 23 nM in [8]; 32 nM in assay [10]. Besides, the inhibition at 1 µM in assay [2] stood at 94%; in [3] it was 97%; in assay [4], 85%; in [7], 100%; in assay [9] it was 67%; in assay [11], 96%. In [12], the inhibition at 1 µM amounted to 46%.

Take `CCN1CCN(c2ccc(Nc3cc(Oc4ccc5[nH]c(C)cc5c4F)ncn3)cc2)CC1` [Example 3]: in assay [13], the EC50 worked out at 93 nM. Besides, the GI50 was above 100 nM in [1], above 500 nM in assay [5] and above 100 nM in assay [10]. Besides, the inhibition at 1 µM in [2] amounted to 61%; in [3], 75%; in [4], 46%; in assay [7] it was 102%; in [9] it was 47%; in assay [11] it was 97%. Further, in assay [12], the inhibition at 1 µM was -2%.
